The nature of this data set: Proto-desulfonation studies (heat treatment in sulfuric acid). The class given is physicochemical. Particulars: 1 M solution, 24 hours in 1M sulfuric acid at 60 degrees Celsius. On the procedure: Proto-Desulfonation Studies.
We determined that the molecule was stable against proto-desulfonation, by heat treatment of 1 M solution of DHDMDS 24 hours in 1M sulfuric acid at 60 degrees Celsius. […] If decomposition occurred there would be the formation of a precipitate of an insoluble de-sulfonated material.

Molecules are shown by their SMILES.

For `Cc1cc(O)c(S(=O)(=O)O)c(C)c1O` [DHDMBS, 2,5-dihydroxy-4,6-dimethylbenzene-1-sulfonic acid], the “stability against proto-desulfonation (decomposition products observed)” value is reported as “decomposes readily”. The value for `Cc1c(O)c(C)c(S(=O)(=O)O)c(O)c1S(=O)(=O)O` [DHDMDS, 2,5-dihydroxy-4,6-dimethylbenzene-1,3-disulfonic acid] was “no decomposition products”.
